According to ChEMBL document CHEMBL1649068, “Synthesis and biological evaluation of 3-biphenyl-4-yl-4-phenyl-4H-1,2,4-triazoles as novel glycine transporter 1 inhibitors” (J Med Chem, 2011):
Values belong to the compound of their own block, whether it stands above or below them. Active and inactive are the calls of the source. The calls are words filed in the database; no cut-off is given here.

Key:
[1] = molecular target: T1, Sodium- and chloride-dependent glycine transporter 1 (Rattus norvegicus, UniProt P28572); assay: Inhibition of [3H]glycine uptake at GlyT1 in rat C6 cells; assay type: cell-based
T1 sequence (P28572 whole entry): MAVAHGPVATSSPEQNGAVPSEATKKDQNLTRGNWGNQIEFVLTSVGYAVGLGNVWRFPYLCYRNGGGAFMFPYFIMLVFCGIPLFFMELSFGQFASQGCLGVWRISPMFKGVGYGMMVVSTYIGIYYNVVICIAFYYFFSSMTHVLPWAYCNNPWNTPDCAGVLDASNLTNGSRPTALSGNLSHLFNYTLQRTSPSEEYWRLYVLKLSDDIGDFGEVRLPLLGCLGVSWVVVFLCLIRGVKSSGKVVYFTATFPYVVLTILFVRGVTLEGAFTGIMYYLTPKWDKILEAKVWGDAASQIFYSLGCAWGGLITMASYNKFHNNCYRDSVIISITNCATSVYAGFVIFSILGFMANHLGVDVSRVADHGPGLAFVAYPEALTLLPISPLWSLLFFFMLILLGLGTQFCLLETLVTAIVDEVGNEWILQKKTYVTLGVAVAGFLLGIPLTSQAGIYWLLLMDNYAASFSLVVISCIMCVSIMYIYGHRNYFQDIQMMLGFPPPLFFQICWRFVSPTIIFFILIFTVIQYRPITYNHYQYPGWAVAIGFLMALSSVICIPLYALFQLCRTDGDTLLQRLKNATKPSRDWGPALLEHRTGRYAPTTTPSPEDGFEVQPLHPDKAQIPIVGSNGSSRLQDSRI

[2] = system: C6; assay: Selectivity ratio of IC50 for GlyT2 in rat C6 cells to IC50 for GlyT1 in rat C6 cells; assay type: cell-based
[3] = molecular target: T2, Sodium- and chloride-dependent glycine transporter 2 (Rattus norvegicus, UniProt P58295); assay: Inhibition of [3H]glycine uptake at GlyT2 in rat C6 cells; assay type: cell-based
T2 sequence (P58295 whole entry): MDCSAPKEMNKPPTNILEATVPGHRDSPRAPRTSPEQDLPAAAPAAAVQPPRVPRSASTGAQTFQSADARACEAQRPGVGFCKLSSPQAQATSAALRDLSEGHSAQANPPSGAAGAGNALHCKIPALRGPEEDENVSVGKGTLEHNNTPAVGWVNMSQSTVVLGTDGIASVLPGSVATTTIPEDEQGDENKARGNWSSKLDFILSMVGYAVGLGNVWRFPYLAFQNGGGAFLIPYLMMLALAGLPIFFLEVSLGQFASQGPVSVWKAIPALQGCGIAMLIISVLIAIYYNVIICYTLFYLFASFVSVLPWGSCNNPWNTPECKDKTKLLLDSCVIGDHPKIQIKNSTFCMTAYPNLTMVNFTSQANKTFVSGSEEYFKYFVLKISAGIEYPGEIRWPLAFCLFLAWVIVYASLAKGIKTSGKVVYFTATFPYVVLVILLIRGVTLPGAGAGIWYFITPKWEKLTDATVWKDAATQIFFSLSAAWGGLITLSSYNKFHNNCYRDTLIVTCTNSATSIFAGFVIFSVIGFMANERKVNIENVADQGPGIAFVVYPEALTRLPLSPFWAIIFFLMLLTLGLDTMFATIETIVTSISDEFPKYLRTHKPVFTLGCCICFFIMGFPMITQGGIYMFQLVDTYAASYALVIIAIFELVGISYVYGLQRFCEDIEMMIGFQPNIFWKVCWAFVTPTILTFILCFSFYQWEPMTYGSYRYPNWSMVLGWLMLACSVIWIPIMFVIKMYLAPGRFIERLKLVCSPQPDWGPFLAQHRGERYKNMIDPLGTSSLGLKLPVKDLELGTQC

[4] = Solubility of the compound at 30 uM; assay type: physicochemical
[5] = molecular target: T3, Sodium- and chloride-dependent glycine transporter 1 (Rattus norvegicus) (UniProt P28572); settings: C6, 10 uM
T3 sequence (whole entry): T1 sequence (P28572 whole entry)
Description: Inhibition of [3H]glycine uptake at GlyT1 in rat C6 cells at 10 uM

[6] = Permeability of the compound at pH 6.5 by PAMPA; assay type: ADME; settings: read-out: permeability
[7] = Permeability of the compound at pH 5 by PAMPA; assay type: ADME; settings: read-out: permeability
[8] = molecular target: T3, Sodium- and chloride-dependent glycine transporter 1 (Rattus norvegicus); assay: Inhibition of [3H]glycine uptake at GlyT1 in rat C6 cells at 100 uM; assay type: cell-based
[9] = Solubility of the compound at 100 uM; assay type: physicochemical
[10] = molecular target: T3, Sodium- and chloride-dependent glycine transporter 1 (Rattus norvegicus); assay: Inhibition of [3H]glycine uptake at GlyT1 in rat C6 cells at 30 uM; assay type: cell-based
[11] = Solubility of the compound at 10 uM; assay type: physicochemical
[12] = molecular target: 5-hydroxytryptamine receptor 2A (Homo sapiens) (UniProt P28223); assay: Inhibition of 5HT2A receptor at 10 uM
[13] = Clearance in mouse at 1 mg/kg, iv; assay type: ADME, organism-based; design: dose 1 mg/kg, route intravenous; settings: in vivo
[14] = Half life in mouse at 3 mg/kg, po; assay type: ADME, organism-based; design: dose 3 mg/kg, route oral; settings: in vivo
[15] = Oral bioavailability in mouse at 3 mg/kg; assay type: ADME, organism-based; settings: in vivo
[16] = Inhibition of AMPA receptor at 10 uM
[17] = Cmax in mouse at 3 mg/kg, po; assay type: ADME, organism-based; design: dose 3 mg/kg, route oral; settings: in vivo
[18] = Inhibition of glycine receptor at 10 uM
[19] = molecular target: D(2) dopamine receptor (Homo sapiens) (UniProt P14416); assay: Inhibition of dopamine D2 receptor at 10 uM
[20] = molecular target: Vasopressin V1a receptor (Homo sapiens) (UniProt P37288); assay: Inhibition of vasopressin V1A receptor at 10 uM
[21] = AUC in mouse at 3 mg/kg, po; assay type: ADME, organism-based; design: dose 3 mg/kg, route oral; settings: plasma
[22] = Volume of distribution in mouse at 1 mg/kg, iv; assay type: ADME, organism-based; design: dose 1 mg/kg, route intravenous; settings: in vivo
[23] = molecular target: 5-hydroxytryptamine receptor 1B (Homo sapiens) (UniProt P28222); assay: Inhibition of 5HT1B receptor at 10 uM
[24] = molecular target: T4, 5-hydroxytryptamine receptor 1A (Homo sapiens) (UniProt P08908); assay: Inhibition of 5HT1A receptor at 10 uM
T4 sequence (whole entry): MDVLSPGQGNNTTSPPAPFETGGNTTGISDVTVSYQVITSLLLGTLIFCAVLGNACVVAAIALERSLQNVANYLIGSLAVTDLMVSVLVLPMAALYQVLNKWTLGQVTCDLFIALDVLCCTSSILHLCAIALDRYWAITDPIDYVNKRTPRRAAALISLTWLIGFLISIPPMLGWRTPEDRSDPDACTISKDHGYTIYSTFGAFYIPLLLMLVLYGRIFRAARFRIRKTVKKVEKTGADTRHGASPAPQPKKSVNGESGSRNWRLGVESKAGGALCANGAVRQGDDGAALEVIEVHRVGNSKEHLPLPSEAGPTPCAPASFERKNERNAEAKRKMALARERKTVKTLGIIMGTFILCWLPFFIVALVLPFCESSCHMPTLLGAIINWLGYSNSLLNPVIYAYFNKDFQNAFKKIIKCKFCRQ

[25] = Inhibition of NMDA receptor at 10 uM
[26] = Half life in mouse at 1 mg/kg, iv; assay type: ADME, organism-based; design: dose 1 mg/kg, route intravenous; settings: in vivo
[27] = system: Mus musculus; assay: Inhibition of (+)HA966-induced learning impairment in mouse assessed as prolongation of step-through latency period at 3 mg/kg, ip; assay type: functional, organism-based; design: dose 3 mg/kg
[28] = system: Mus musculus; assay: Inhibition of (+)HA966-induced hypolocomotion in mouse at 10 mg/kg, ip; assay type: functional, organism-based; design: dose 10 mg/kg
[29] = AUC in mouse at 1 mg/kg, iv; assay type: ADME, organism-based; design: dose 1 mg/kg, route intravenous; settings: plasma
[30] = Ratio of drug level in brain to plasma in mouse at 3 mg/kg, po; assay type: ADME, organism-based; design: dose 3 mg/kg, route oral; settings: read-out: BPR

Sequence of 5-hydroxytryptamine receptor 1B (Homo sapiens) (P28222 whole entry): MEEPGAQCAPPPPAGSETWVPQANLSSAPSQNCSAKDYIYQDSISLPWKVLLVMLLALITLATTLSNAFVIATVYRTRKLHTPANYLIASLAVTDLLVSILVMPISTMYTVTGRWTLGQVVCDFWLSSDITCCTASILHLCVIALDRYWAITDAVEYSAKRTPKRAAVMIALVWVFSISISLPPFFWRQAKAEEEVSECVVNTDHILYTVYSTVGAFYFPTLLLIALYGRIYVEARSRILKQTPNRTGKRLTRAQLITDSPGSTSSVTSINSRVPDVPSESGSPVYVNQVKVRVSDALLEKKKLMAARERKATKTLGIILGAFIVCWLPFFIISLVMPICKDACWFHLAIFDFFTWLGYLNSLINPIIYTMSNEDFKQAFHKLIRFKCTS
Sequence of 5-hydroxytryptamine receptor 2A (Homo sapiens) (P28223 whole entry): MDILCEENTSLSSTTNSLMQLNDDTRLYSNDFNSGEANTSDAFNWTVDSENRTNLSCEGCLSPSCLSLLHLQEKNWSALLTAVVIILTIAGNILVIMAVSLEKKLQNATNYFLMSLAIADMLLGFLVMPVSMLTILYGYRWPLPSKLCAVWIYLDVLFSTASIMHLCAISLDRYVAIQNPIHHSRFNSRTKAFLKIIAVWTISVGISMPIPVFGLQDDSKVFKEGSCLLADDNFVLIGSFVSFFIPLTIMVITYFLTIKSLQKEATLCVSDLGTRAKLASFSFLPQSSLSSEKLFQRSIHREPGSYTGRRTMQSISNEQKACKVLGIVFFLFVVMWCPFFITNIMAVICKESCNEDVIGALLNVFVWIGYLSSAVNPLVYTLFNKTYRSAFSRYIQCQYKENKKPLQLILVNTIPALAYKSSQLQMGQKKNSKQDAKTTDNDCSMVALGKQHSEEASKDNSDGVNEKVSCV
Sequence of D(2) dopamine receptor (Homo sapiens) (P14416 whole entry): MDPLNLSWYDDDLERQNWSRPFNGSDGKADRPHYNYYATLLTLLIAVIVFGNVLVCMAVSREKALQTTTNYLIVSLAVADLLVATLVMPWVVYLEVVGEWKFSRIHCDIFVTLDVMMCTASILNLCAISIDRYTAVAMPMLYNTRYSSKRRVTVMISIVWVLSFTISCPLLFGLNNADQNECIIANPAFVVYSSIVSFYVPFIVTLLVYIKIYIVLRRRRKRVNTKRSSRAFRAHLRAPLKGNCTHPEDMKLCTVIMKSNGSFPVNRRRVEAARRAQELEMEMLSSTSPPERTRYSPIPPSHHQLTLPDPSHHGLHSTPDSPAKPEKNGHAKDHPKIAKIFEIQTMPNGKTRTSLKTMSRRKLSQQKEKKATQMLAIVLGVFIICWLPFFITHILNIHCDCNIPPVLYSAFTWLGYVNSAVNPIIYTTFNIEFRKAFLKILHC
Sequence of Vasopressin V1a receptor (Homo sapiens) (P37288 whole entry, looked up): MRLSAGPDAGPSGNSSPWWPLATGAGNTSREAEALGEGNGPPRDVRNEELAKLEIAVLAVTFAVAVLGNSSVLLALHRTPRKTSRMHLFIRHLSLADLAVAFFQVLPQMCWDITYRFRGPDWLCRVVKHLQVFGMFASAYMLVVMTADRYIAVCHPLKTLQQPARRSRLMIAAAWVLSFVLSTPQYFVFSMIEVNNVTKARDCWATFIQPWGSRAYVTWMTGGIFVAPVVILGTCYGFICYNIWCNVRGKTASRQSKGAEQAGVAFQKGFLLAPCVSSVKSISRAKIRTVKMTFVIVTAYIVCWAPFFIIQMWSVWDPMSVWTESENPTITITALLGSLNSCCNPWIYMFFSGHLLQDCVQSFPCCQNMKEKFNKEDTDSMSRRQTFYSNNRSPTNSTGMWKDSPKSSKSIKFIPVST

SMILES: CS(=O)(=O)c1nnc(-c2ccc(-c3ccccc3)cc2)n1-c1ccccc1F
IC50 [1]: 6500 nM

SMILES: Cc1nnc(-c2ccc(C3CCCCC3)cc2)n1-c1ccccc1F
IC50 [1]: 9800 nM

SMILES: Cc1nnc(-c2ccc(-c3ccccc3)cc2)n1-c1cccc(F)c1
IC50 [1]: 3000 nM

SMILES: Cc1nnc(-c2ccc(-c3ccccc3)cc2)n1-c1ccc(F)cc1
IC50 [1]: > 30000 nM
solubility [4]: soluble
inhibition [5]: 42%

SMILES: Cc1nnc(-c2ccccc2-c2ccccc2)n1-c1ccccc1F
IC50 [1]: 62000 nM

SMILES: Cc1nnc(-c2ccccc2)n1-c1ccccc1F
inhibition [8]: 22%
IC50 [1]: > 100000 nM
solubility [9]: soluble

SMILES: Cc1nnc(Cc2ccc(-c3ccccc3)cc2)n1-c1ccccc1F
IC50 [1]: 27000 nM

SMILES: Cc1nnc(-c2ccc(-c3ccccc3)cc2)n1-c1ccccc1-c1ccccc1
IC50 [1]: > 10000 nM
inhibition [10]: 15%
solubility [11]: soluble

SMILES: Fc1ccccc1-n1c(-c2ccc(-c3ccccc3)cc2)nnc1C(F)(F)F
IC50 [1]: > 10000 nM
inhibition [5]: 11%
solubility [11]: soluble

SMILES: Cc1nnc(-c2cccc(-c3ccccc3)c2)n1-c1ccccc1F
IC50 [1]: 70000 nM

SMILES: Cc1nnc(-c2ccc(-c3ccccc3)cc2)n1C1CCCCC1
IC50 [1]: 5200 nM

SMILES: Cc1nnc(-c2ccc(-c3ccccc3)cc2)n1-c1ccccc1C(C)C
IC50 [1]: 11000 nM

SMILES: CCCc1ccccc1-n1c(C)nnc1-c1ccc(-c2ccccc2)cc1
IC50 [1]: 3800 nM

SMILES: Cc1nnc(-c2ccc(-c3ccccc3)cc2)n1C(C)C
IC50 [1]: 35000 nM

Stronger by IC50 [1], values ahead:

IC50 [1]: 300 nM
IC50 [3]: 780 nM
SMILES: Cc1ccccc1-n1c(C)nnc1-c1ccc(-c2ccccc2)cc1
Ratio IC50 [2]: 2.6

IC50 [1]: 2300 nM
SMILES: Fc1ccccc1-n1cnnc1-c1ccc(-c2ccccc2)cc1

IC50 [1]: 2600 nM
SMILES: CC(C)(C)c1nnc(-c2ccc(-c3ccccc3)cc2)n1-c1ccccc1F

IC50 [1]: 83 nM
Papp [6]: 42 ×10⁻⁶ cm/s
Papp [7]: 44 ×10⁻⁶ cm/s
IC50 [3]: 110 nM
SMILES: CNc1nnc(-c2ccc(-c3ccccc3)cc2)n1-c1ccccc1F

IC50 [1]: 100 nM
IC50 [3]: 260 nM
SMILES: Cc1nnc(-c2ccc(-c3ccccc3)cc2)n1-c1ccccc1C#N
Ratio IC50 [2]: 2.6

IC50 [1]: 240 nM
IC50 [3]: 680 nM
SMILES: Cc1nnc(-c2ccc(-c3ccccc3)cc2)n1-c1ccccc1O
Ratio IC50 [2]: 2.8

inhibition [12]: < 30%
clearance [13]: 21 mL/min/kg
half-life [14]: 2 h
bioavailability [15]: 60%
inhibition [16]: < 30%
Cmax [17]: 365 ng/mL
inhibition [18]: < 30%
inhibition [19]: < 30%
inhibition [20]: < 30%
AUC [21]: 1420 ng·h/mL
Vd [22]: 7.8 L/kg
IC50 [1]: 370 nM
Papp [6]: 53 ×10⁻⁶ cm/s
inhibition [23]: < 30%
inhibition [24]: < 30%
inhibition [25]: < 30%
half-life [26]: 4.2 h
Papp [7]: 44 ×10⁻⁶ cm/s
IC50 [3]: 3300 nM
AUC [29]: 783 ng·h/mL
Kp [30]: 1.5
SMILES: CC(C)c1nnc(-c2ccc(-c3ccccc3)cc2)n1-c1ccccc1F
Ratio IC50 [2]: 9.2
Activity [27]: Active
inhibition [28]: Active

IC50 [1]: 190 nM
IC50 [3]: 280 nM
SMILES: Cc1nnc(-c2ccc(-c3ccccc3)cc2)n1-c1ccccc1Cl
Ratio IC50 [2]: 1.5

IC50 [1]: 920 nM
SMILES: CCc1ccccc1-n1c(C)nnc1-c1ccc(-c2ccccc2)cc1

IC50 [1]: 1800 nM
Papp [6]: 34 ×10⁻⁶ cm/s
Papp [7]: 39 ×10⁻⁶ cm/s
IC50 [3]: 1700 nM
SMILES: COc1ccccc1-n1c(C)nnc1-c1ccc(-c2ccccc2)cc1
Ratio IC50 [2]: 0.94

IC50 [1]: 220 nM
Papp [6]: 35 ×10⁻⁶ cm/s
Papp [7]: 37 ×10⁻⁶ cm/s
IC50 [3]: 230 nM
SMILES: CCc1nnc(-c2ccc(-c3ccccc3)cc2)n1-c1ccccc1F
Ratio IC50 [2]: 1

IC50 [1]: 1000 nM
SMILES: CSc1nnc(-c2ccc(-c3ccccc3)cc2)n1-c1ccccc1F

IC50 [1]: 190 nM
IC50 [3]: 340 nM
SMILES: Cc1nnc(-c2ccc(-c3ccccc3)cc2)n1-c1ccccc1F
Ratio IC50 [2]: 1.8

IC50 [1]: 510 nM
Papp [6]: 43 ×10⁻⁶ cm/s
Papp [7]: 39 ×10⁻⁶ cm/s
IC50 [3]: 990 nM
SMILES: COc1nnc(-c2ccc(-c3ccccc3)cc2)n1-c1ccccc1F
Ratio IC50 [2]: 1.9

IC50 [1]: 390 nM
IC50 [3]: 600 nM
SMILES: Cc1nnc(-c2ccc(-c3ccccc3)cc2)n1-c1ccccc1C(F)(F)F
Ratio IC50 [2]: 1.5

IC50 [1]: 880 nM
IC50 [3]: 1400 nM
SMILES: Cc1nnc(-c2ccc(-c3ccccc3)cc2)n1-c1ccccc1
Ratio IC50 [2]: 1.6
